For one compound, inhibition, Activity and Ratio IC50 results are on record in ChEMBL document CHEMBL4765282, “Design, synthesis and biological evaluation of 1H-pyrazolo [3,4-d]pyrimidine derivatives as PAK1 inhibitors that trigger apoptosis, ER stress and anti-migration effect in MDA-MB-231 cells” (Eur J Med Chem, 2020).

Active and inactive are the calls of the source. The calls are words filed in the database; no cut-off is given here.

Test [1] has as its system MDA-MB-231. In words: Inhibition of PI3K/AKT/mTOR signaling in human MDA-MB-231 cells assessed as reduction in mTOR phosphorylation at 10 to 40 uM after 24 hrs by Western blot analysis. It is filed as cell-based. The settings on record: dose 10-40 µM. (In western blotting, separated proteins are transferred to a membrane and probed.)
In test [2] the test system is MDA-MB-231. In words: Induction of apoptosis in human MDA-MB-231 cells assessed as early apoptotic cells at 40 uM measured after 24 hrs by Annexin V-FITC/propidium iodide staining based flow cytometry (reference value: 0.81%). Type of test: functional.
A further test is filed under the species Homo sapiens. In words: Selectivity ratio of IC50 for inhibition of PAK3 (unknown origin) to IC50 for inhibition of PAK1 (unknown origin).

For the compound `O=C(Nc1cc(C(F)(F)F)cc(C(F)(F)F)c1)NC1CCN(c2ncnc3[nH]ncc23)CC1`, the inhibition result in the test with MDA-MB-231 [1] was “Active”. In addition, the Activity with MDA-MB-231 [2] is on record as 14.79%. Also, in the test listed under Homo sapiens, the Ratio IC50 is 5.
